Key:
[1] = system: MDR1a-/- mice; experiment: MDR1a-/- chronic model of IBD; format: in vivo
Description: MDR1a−/− model. Mice deficient in MDR1a spontaneously develop colitis. MDR1a−/− began receiving BT-63 treatment (oral, 20 mg/kg) at 6 weeks of age and continued treatment until 10 weeks of age. Mice were weighed and scored weekly. Treatment administration. BT-63 was prepared within a 0.5% methylcellulose (12-15 cP) solution. Dosage used was 20 mg/kg delivered once daily. Mice were weighed on a weekly basis to update dosage formulation. Dosage was calculated based off mean body weights for each gender. Oral dosage was delivered by orogastric gavage of dosage in 0.2 mL volume. Flow Cytometry. […]
collagenase (300U/mL) and DNase (50U/mL) for digestion. Tissues were digested for 60 minutes under stirring at 37° C. Resultant cellular suspensions were filtered through 100 μm strainers, centrifuged (300×g, 8 min), and washed in fresh RPMI. Following filtration of the resulting single cell suspensions, immune cells were purified by Percoll gradient of cell-containing 40% Percoll overlayed onto 70% Percoll solution. After centrifugation, interphase was collected and washed to obtain enriched colonic lamina propria cell fractions. Cells were labeled with mixtures of extracellular (CD45, CD3, CD4, CD8, CD19, NK1.1, CD25, F4/80, CD11b, Gr1, CX3CR1, CD64) and intracellular (Tbet, RORyT, FOXP3, IFNγ, IL17, IL10) antibodies in a sequential live staining in 96-well plates. Data was acquired using a FACS Celesta flow cytometer with FACSDiva software.

[2] = system: Naïve CD4+ T cells; experiment: In vitro Treg differentiation of naive CD4+ T cells with BT-63; format: cell-based, mice
Description: Naïve CD4+ T cells can be isolated from the spleens of mice by magnetic sorting. The isolated cells can be incubated in anti-CD^3/anti-CD28 coated 96 well plates in Treg differentiation media. The Treg differentiation media can be Iscove's Modified Dulbecco's Medium (IMDM) media (ThermoFisher Scientific) supplemented with fetal bovine serum, HEPES, penicillin/streptomycin, L-glutamine, and differentiation agents. The Treg differentiation agents can be 10 nM all-trans-retinoic acid and 5 ng/mL TGF-β. Additional experiments can be conducted comparing differentiation in the Treg differentiation media with and without the addition of 10 ng/mL IL-2 or IL-12. Cells can be incubated with vehicle, 10 nM, or 100 nM BT-63 in differentiation media for 48 hours prior to assay. Prior to assay, cells can be stimulated with PMA and ionomycin for 6 hours.
Colonic lamina propria lymphocytes and cultured cells can be plated in 96 well plates (6×10^5 cells/well) and processed for immunophenotyping by flow cytometry as previously described. Briefly, cells can be incubated with fluorochrome conjugated antibodies to extracellular markers: CD45, CD4, CD3, CD25, CD8. Samples needing a secondary staining can be incubated with secondary antibodies, or streptavidin-conjugated fluorochrome. The samples can then be fixed and permeabilized. Cells can be incubated with antibodies to intracellular markers: Tbet, IFNγ, IL10, FOXP3, IL17, RORγT. Data can be acquired with a BD FACS Celesta flow cytometer and analyzed using FACS Diva software (BD Pharmingen).

[3] = colonic lamina propria, four weeks oral 20 mg/kg
[4] = spleen, four weeks oral 20 mg/kg

O=C(CN1CCN(C(=O)c2cccc(-c3nc4ccccc4[nH]3)n2)CC1)c1ccccc1 [BT-63, 2-(4-(6-(1H-benzo[d]imidazol-2-yl)picolinoyl)piperazin-1-yl)-1-phenylethanone]
proportions of regulatory CD4+ CD25+ T cells ([1]; colon, four weeks oral 20 mg/kg): increased
proportions of Th1 [1, 3]: reduces
proportions of Th17 [1, 3]: reduces
proportions of neutrophils [1, 3]: reduces
splenic CD25+ Tregs [1, 4]: increased
splenic Th1 cells [1, 4]: decreased
maximal observed reduction of disease activity ([1]; week four of treatment, oral 20 mg/kg): 90%
establishment of a CD25+ FOXP3+ subtype ([2]; 100 nM, absence of IL-2): significantly increase
CD25+ FOXP3+ cells ([2]; IL-12-treated samples): significantly higher levels
mixed CD25+ Tbet+ subtype ([2]; Treg differentiation with or without IL-2): not be statistically altered
CD25+ Tbet+ cells ([2]; addition of IL-12): dose-dependent protection
STAT5a phosphorylation ([2]; base Treg differentiation media, also with IL-2 or IL-12): phosphorylated in a greater ratio
FOXO1 phosphorylation ([2]; base media and media containing IL-2, not IL-12): similarly be affected
CD25+ FOXP3+ cells ([2]; concentrations as low as 10 nM, presence of IL-2): significantly more

From US12145920B2, “Lanthionine c-like protein 2 ligands, cells prepared therewith, and therapies using same” (NImmune Biopharma, Inc., priority 2019, dated 2024)
